Reference: EP4168396B1, “COMPOUNDS FOR THE TREATMENT OF NEURODEGENERATIVE DISEASES” (Universite De Franche Comte, priority 2020, dated 2021)
Like-named read-outs stand apart in the source and are kept apart here.

How the values were obtained:
[1] = tested on: voltage-gated Ca^2+ channels (VGCC); experiment: Calcium channel antagonist assay (cytosolic Ca2+, Fluo-4); format: cell-based; conditions: SH-SY5Y cells, K+ 70 mM
Experimental: The cytosolic Ca2+ has been measured in SH-SY5Y cells. SH-SY5Y cells were maintained similarly to what was previously described56. Free cytosolic Ca2+ was measured using the fluorescent Ca2+ indicator Fluo-4/AM (Fluo-4 acetomethoxyester). SH-SY5Y cells were seeded onto 96-well black plates at a density of 10^5 cells per well, achieving confluence after 48 h. Cells were washed with Krebs-Hepes solution (KH, in mM: 144 NaCl, 5.9 KCl, 1.2 MgCl2, 2 CaCl2, 11 D-glucose, 10 HEPES, pH 7.4). Cells were loaded with 10 µM Fluo-4/AM and 0.2% pluronic acid in KH and incubated for 45 min at 37 °C in the dark. Then, cells were washed twice with KH to remove the excess of probe. Tested compounds were incubated 10 min before K+ 70 mM was applied to evoke the increment of cytosolic Ca2+. To normalize Fluo-4 signals, Triton X-100 (5%) and 1 M MnCl2 were applied to register both maximal and minimal fluorescence, respectively. The experiments were analyzed at excitation and emission wavelengths of 485 and 520 nm, respectively, and fluorescence was measured in a fluorescence microplate reader (FLUOstar Optima, BMG, Germany). Data were calculated as a percentage of Fmax - Fmin.
The blocking effect of the depolarization-induced Ca^2+ uptake was investigated in SH-SY5Y neuroblastoma cells stimulated with an extracellular concentration of K^+ 70 mM, which induces the cell Ca^2+ levels elevation by opening voltage-gated Ca^2+ channels (VGCC), monitored with the Ca^2+-sensitive fluorescent dye Fluo-4. Nimodipine was used as positive standard.

human H3 receptor = target: T1, human H3 receptor (Homo sapiens, UniProt Q9Y5N1); experiment: H3 Receptor Binding Assay (radioligand binding); conditions: membranes from CHO-K1 cells, [3H]-N-α-methylhistamine 1.0 nM; read-out: H3R Ki [nM] ± SEM
T1 construct: expressed in transfected cells; host or cells: CHO-K1
Experimental: 10 mM stock solutions of compounds to be tested were prepared in DMSO.
Radioligand binding was performed using membranes from CHO-K1 cells stably transfected with the human H3 receptor. All assays were carried out in duplicates. 50 µl working solution of the tested compounds, 50 µl [3H]-N-α-methylhistamine (spec. act. 82.9 Ci/mmol, final concentration 1.0 nM) and 150 µl diluted membranes (15 µg protein per well) prepared in assay buffer (50 mM Tris, pH 7.4, 5 mM MgCl2) were transferred to polypropylene 96-well microplate using 96-wells pipetting station Rainin Liquidator (MettlerToledo). […] Microplate was covered with a sealing tape, mixed and incubated for 60 minutes at 27°C. The reaction was terminated by rapid filtration through GF/B filter mate presoaked with 0.5% polyethyleneimine for 30 minutes. Five rapid washes with 300 µl 50 mM Tris buffer (4°C, pH 7.4) were performed using 96-well FilterMate harvester (PerkinElmer, USA). The filter mates were dried at 37°C in forced air fan incubator and then solid scintillator MeltiLex was melted on filter mates at 90°C for 4 minutes. Radioactivity was counted in MicroBeta2 scintillation counter (PerkinElmer). Data were fitted to a one-site curve-fitting equation with Prism 5 (GraphPad Software) and Ki values were estimated from the Cheng-Prusoff equation.

[2] = target: T2, human recombinant acetylcholinesterase (hAChE) (Homo sapiens, UniProt P22303); experiment: Cholinesterase inhibition assay (Ellman), hAChE; format: biochemical
T2 construct: purchased Sigma-Aldrich
Experimental: Inhibitory activities of the test compounds against the human cholinesterases were measured using the spectrophotometric method described by Ellman et al.^4, as modified for 96-well microplates. 5,5'-Dithiobis-(2-nitrobenzoic acid) (DTNB), acetylthiocholine iodide (ATC), butyrylthiocholine iodide (BTC), and human recombinant acetylcholinesterase (hAChE) were purchased from Sigma-Aldrich. Human butyrylcholinesterase (hBuChE) isolated from human plasma was from Vivonics (Bedford, MA, USA). […] In the first step of Ellman's method 25 µL of the test compound (or mixture DMSO/water in appropriate ratio; i.e. blank samples) was incubated in 0.1 M phosphate buffer (200 µL, pH= 8.0) with DTNB (20 µL; 0.0025M) and the enzyme (20 µL; hAChE or hBuChE) in temperature 36 °C. […] All compounds were tested at screening concentration of 10 µM. Percent of inhibition was calculated from 100-(S/B)×100, where S and B were the respective enzyme activities with and without the test sample, respectively. […] All reactions were performed in triplicate. The IC50 values were calculated using nonlinear regression (GraphPad Prism 5 [GraphPad Software, San Diego California USA 5.00]) by plotting the residual enzyme activities against the applied inhibitor concentration. Tacrine was used as a reference compound.

[3] = target: T3, Human butyrylcholinesterase (hBuChE) (Homo sapiens, UniProt P06276); experiment: Cholinesterase inhibition assay (Ellman), hBuChE; format: biochemical
T3 construct: Human butyrylcholinesterase (hBuChE) isolated from human plasma was from Vivonics; purchased Vivonics (Bedford, MA, USA); host or cells: human plasma
Experimental: Inhibitory activities of the test compounds against the human cholinesterases were measured using the spectrophotometric method described by Ellman et al.^4, as modified for 96-well microplates. 5,5'-Dithiobis-(2-nitrobenzoic acid) (DTNB), acetylthiocholine iodide (ATC), butyrylthiocholine iodide (BTC), and human recombinant acetylcholinesterase (hAChE) were purchased from Sigma-Aldrich. Human butyrylcholinesterase (hBuChE) isolated from human plasma was from Vivonics (Bedford, MA, USA). […] The stock solutions of the test compounds were prepared by dissolving in DMSO to obtain a concentration of 0.0034M. They were further diluted in water to give appropriate concentration in a well. In the first step of Ellman's method 25 µL of the test compound (or mixture DMSO/water in appropriate ratio; i.e. blank samples) was incubated in 0.1 M phosphate buffer (200 µL, pH= 8.0) with DTNB (20 µL; 0.0025M) and the enzyme (20 µL; hAChE or hBuChE) in temperature 36 °C. […] All compounds were tested at screening concentration of 10 µM. Percent of inhibition was calculated from 100-(S/B)×100, where S and B were the respective enzyme activities with and without the test sample, respectively. […] All reactions were performed in triplicate. The IC50 values were calculated using nonlinear regression (GraphPad Prism 5 [GraphPad Software, San Diego California USA 5.00]) by plotting the residual enzyme activities against the applied inhibitor concentration. Tacrine was used as a reference compound.

Human recombinant GSK-3β = target: T4, Human recombinant GSK-3β (Homo sapiens, UniProt P49841); experiment: GSK-3β inhibition in vitro assay (Kinase-Glo luminescence); format: biochemical
T4 construct: purchased Millipore (Millipore Iberica S.A.U.)
Experimental: Human recombinant GSK-3β, prephosphorylated polypeptide substrate and white 96-well plates were purchased from Millipore (Millipore Iberica S.A.U.). Kinase-Glo Luminescent Kinase Assay was obtained from Promega (Promega Biotech Iberica, SL). Adenosinetriphosphate (ATP) and all other reagents were from Sigma-Aldrich. Assay buffer contained 50 mM 4-(2-hydroxyethyl)-1- piperazineethanesulfonic acid (HEPES) (pH 7.5), 1 mM ethylenediaminetetraacetic acid (EDTA), 1 mM ethylene glycol tetraacetic acid (EGTA), and 15 mM magnesium acetate. The in solution experiments for GSK-3β inhibition analysis were performed by following the method developed by Baki et al.^18. In a typical assay, 10 µL of test compound (dissolved in DMSO at 1 mM concentration and diluted in advance in assay buffer to the desired concentration) and 10 µL (20 ng) of enzyme were added to each well in presence of 20 µL of assay buffer containing GSM substrate and ATP in order to reach a 25 µM and 1 µM final concentration respectively. […] After a 30 min incubation time at 30 °C, the enzymatic reaction was stopped by adding 40 µL of Kinase-Glo reagent. Glow-type luminescence was recorded after 10 min using a VictorX 3 PerkinElmer plate reader. […]. The linear regression parameters were determined and the IC50 extrapolated (GraphPad Prism 4.0, GraphPad Software Inc.).

[4] = read-out: cholinesterases inhibition

T4 sequence (P49841 whole entry): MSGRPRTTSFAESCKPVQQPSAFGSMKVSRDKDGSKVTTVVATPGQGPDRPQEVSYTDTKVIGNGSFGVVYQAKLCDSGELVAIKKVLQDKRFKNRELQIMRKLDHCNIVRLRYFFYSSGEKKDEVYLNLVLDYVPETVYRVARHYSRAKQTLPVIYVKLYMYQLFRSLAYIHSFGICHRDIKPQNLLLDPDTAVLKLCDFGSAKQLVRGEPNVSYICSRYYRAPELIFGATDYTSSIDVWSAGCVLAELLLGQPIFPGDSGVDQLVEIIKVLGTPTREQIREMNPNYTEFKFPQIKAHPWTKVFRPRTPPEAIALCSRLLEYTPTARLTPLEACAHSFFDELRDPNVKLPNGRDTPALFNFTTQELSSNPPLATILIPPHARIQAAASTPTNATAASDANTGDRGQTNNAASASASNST
T2 sequence (P22303 32-614): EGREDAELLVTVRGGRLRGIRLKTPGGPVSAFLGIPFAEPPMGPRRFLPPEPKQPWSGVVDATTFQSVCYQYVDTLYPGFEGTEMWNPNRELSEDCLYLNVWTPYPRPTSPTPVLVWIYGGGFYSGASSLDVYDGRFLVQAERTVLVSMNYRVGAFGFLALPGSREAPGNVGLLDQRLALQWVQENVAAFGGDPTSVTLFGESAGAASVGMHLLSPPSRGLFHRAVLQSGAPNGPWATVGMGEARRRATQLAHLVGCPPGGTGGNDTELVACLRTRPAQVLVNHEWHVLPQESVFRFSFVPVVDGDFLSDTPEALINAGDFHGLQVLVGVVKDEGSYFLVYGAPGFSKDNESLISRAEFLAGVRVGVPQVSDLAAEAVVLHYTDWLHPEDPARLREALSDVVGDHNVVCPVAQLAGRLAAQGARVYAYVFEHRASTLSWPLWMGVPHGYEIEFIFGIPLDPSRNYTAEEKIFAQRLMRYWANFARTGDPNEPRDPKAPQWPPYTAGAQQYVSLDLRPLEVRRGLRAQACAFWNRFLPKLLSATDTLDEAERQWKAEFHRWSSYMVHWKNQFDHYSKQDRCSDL
T3 sequence (P06276 29-602): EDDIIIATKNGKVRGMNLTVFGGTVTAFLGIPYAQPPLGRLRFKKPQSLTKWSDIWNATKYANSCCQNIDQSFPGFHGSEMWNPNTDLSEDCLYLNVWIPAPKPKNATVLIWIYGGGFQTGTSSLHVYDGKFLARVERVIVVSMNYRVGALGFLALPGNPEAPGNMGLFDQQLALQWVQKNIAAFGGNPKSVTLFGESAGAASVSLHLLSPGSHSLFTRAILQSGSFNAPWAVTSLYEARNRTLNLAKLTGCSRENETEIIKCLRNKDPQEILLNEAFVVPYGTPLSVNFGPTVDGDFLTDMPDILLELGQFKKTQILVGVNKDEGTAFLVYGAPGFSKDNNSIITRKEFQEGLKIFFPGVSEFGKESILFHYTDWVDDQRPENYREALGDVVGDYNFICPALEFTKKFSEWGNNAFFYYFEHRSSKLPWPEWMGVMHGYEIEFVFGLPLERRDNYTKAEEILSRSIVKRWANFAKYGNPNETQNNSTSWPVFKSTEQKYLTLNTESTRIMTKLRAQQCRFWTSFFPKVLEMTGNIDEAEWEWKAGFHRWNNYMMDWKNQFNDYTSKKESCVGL
T1 sequence (Q9Y5N1 whole entry): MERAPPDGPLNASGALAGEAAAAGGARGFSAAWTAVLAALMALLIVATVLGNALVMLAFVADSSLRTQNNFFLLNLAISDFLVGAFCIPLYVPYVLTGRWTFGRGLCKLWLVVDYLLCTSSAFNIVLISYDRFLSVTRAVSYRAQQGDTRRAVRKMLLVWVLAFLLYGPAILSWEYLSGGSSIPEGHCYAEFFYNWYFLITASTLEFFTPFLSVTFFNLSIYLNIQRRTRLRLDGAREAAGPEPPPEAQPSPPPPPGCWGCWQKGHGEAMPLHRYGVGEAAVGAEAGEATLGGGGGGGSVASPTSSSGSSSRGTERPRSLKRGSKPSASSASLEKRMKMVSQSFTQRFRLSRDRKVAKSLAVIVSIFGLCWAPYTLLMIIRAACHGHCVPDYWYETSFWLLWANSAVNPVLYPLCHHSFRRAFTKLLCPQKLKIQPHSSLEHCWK

SMILES	Calcium Channel % inhibition at 10µM [1]	Ki (human H3 receptor)	IC50 ([2]; read-out: hAChE IC50)	IC50 [3]	IC50 (Human recombinant GSK-3β)	IC50 [2, 4]	IC50 (Human recombinant GSK-3β; read-out: Gsk3β IC50)
COCCOC(=O)C1=C(C)NC(C)=C(C(=O)OC(C)C)C1c1cccc([N+](=O)[O-])c1 (stereo not drawn) [Nimodipine, reference compound]	38%	–	–	–	–	–	–
CCOC(=O)C1=C(C)N(CCC2CCN(Cc3ccccc3)CC2)C(=O)NC1c1ccc(OCCCCCN2CCCC2)cc1 (stereo not drawn) [BIGI-BIH-D4, Ethyl 1-(2-(1-benzylpiperidin-4-yl)ethyl)-6-methyl-2-oxo-4-(4-((5-(pyrrolidin-1-yl)pentyl)oxy)phenyl)-1,2,3,4-tetrahydropyrimidine-5-carboxylate]	22%	0.5 ± 0.05 nM	0.088 ± 0.002 µM	1.39 ± 0.066 µM	60.5 µM	–	–
CCOC(=O)C1=C(C)N(CCC2CCN(Cc3ccccc3)CC2)C(=O)NC1c1ccc(OCCCCCCN2CCOCC2)cc1 (stereo not drawn) [BIGI-BIH-D9, Ethyl 1-(2-(1-benzylpiperidin-4-yl)ethyl)-6-methyl-4-(4-((6-morpholinohexyl)oxy)phenyl)-2-oxo-1,2,3,4-tetrahydropyrimidine-5-carboxylate]	61%	3 ± 0.4 nM	0.115 ± 0.002 µM	–	38.6 µM	–	–
CCOC(=O)C1=C(C)N(CCC2CCN(Cc3ccccc3)CC2)C(=O)NC1c1ccc(OCCCCN2CCCC2)cc1 (stereo not drawn) [BIGI-BIH-D1, Ethyl 1-(2-(1-benzylpiperidin-4-yl)ethyl)-6-methyl-2-oxo-4-(4-(4-(pyrrolidin-1-yl)butoxy)phenyl)-1,2,3,4-tetrahydropyrimidine-5-carboxylate]	5%	2.8 ± 0.2 nM	0.063 ± 0.001 µM	1.72 ± 0.119 µM	–	0.063 µM	59.8 µM
CCOC(=O)C1=C(C)N(CCC2CCN(Cc3ccccc3)CC2)C(=O)NC1c1ccc(OCCCCN2CCOCC2)cc1 (stereo not drawn) [BIGI-BIH-D3, Ethyl 1-(2-(1-benzylpiperidin-4-yl)ethyl)-6-methyl-4-(4-(4-morpholinobutoxy)phenyl)-2-oxo-1,2,3,4-tetrahydropyrimidine-5-carboxylate]	23%	12 ± 0.5 nM	0.123 ± 0.002 µM	–	–	–	126 µM
CCOC(=O)C1=C(C)N(CCC2CCN(Cc3ccccc3)CC2)C(=O)NC1c1ccc(OCCCCCN2CCOCC2)cc1 (stereo not drawn) [BIGI-BIH-D6, Ethyl 1-(2-(1-benzylpiperidin-4-yl)ethyl)-6-methyl-4-(4-((5-morpholinopentyl)oxy)phenyl)-2-oxo-1,2,3,4-tetrahydropyrimidine-5-carboxylate]	39%	0.6 ± 0.05 nM	0.115 ± 0.002 µM	–	–	–	56.6 µM
CCOC(=O)C1=C(C)N(CCC2CCN(Cc3ccccc3)CC2)C(=O)NC1c1ccc(OCCCCCCN2CCCC2)cc1 (stereo not drawn) [BIGI-BIH-D7, Ethyl 1-(2-(1-benzylpiperidin-4-yl)ethyl)-6-methyl-2-oxo-4-(4-((6-(pyrrolidin-1-yl)hexyl)oxy)phenyl)-1,2,3,4-tetrahydropyrimidine-5-carboxylate]	47%	0.2 ± 0.04 nM	0.089 ± 0.002 µM	0.768 ± 0.013 µM	–	–	30.6 µM
CCOC(=O)C1=C(C)N(CCC2CCN(Cc3ccccc3)CC2)C(=O)NC1c1ccc(OCCCCCN2CCCCC2)cc1 (stereo not drawn) [BIGI-BIH-D5, Ethyl 1-(2-(1-benzylpiperidin-4-yl)ethyl)-6-methyl-2-oxo-4-(4-((5-(piperidin-1-yl)pentyl)oxy)phenyl)-1,2,3,4-tetrahydropyrimidine-5-carboxylate]	34%	0.3 ± 0.07 nM	0.067 ± 0.001 µM	1.28 ± 0.072 µM	–	–	26.3 µM
CCOC(=O)C1=C(C)N(CCC2CCN(Cc3ccccc3)CC2)C(=O)NC1c1ccc(OCCCCCCN2CCCCC2)cc1 (stereo not drawn) [BIGI-BIH-D8, Ethyl 1-(2-(1-benzylpiperidin-4-yl)ethyl)-6-methyl-2-oxo-4-(4-((6-(piperidin-1-yl)hexyl)oxy)phenyl)-1,2,3,4-tetrahydropyrimidine-5-carboxylate]	60%	0.2 ± 0.02 nM	0.086 ± 0.002 µM	1.25 ± 0.046 µM	–	–	68.2 µM
CCOC(=O)C1=C(C)N(CCC2CCN(Cc3ccccc3)CC2)C(=O)NC1c1ccc(OCCCCN2CCCCC2)cc1 (stereo not drawn) [BIGI-BIH-D2, Ethyl 1-(2-(1-benzylpiperidin-4-yl)ethyl)-6-methyl-2-oxo-4-(4-(4-(piperidin-1-yl)butoxy)phenyl)-1,2,3,4-tetrahydropyrimidine-5-carboxylate]	13%	0.6 ± 0.08 nM	0.067 ± 0.001 µM	0.928 ± 0.032 µM	–	0.123 µM	106 µM
